Results on twelve compounds are retold here after ChEMBL document CHEMBL5608259 (J Med Chem, 2024).

The structures appear in SMILES notation. The source made the active and inactive calls. No cut-off for these calls is given here. A value given as a limit tells only on which side of the number the result lay.

The test system of one assay is MDA-MB-231. Kind of assay: Inhibition of colony formation in human MDA-MB-231 cells at 10 uM incubated for 2 weeks by crystal violet staining based analysis relative to control. Format: functional. The following applies: MDA-MB-231, 336 h.
The target in assay [1] is Protein arginine N-methyltransferase 3 (Homo sapiens, UniProt O60678). Kind of assay: Inhibition of human PRMT3 using H4-21peptide as substrate at 10 uM incubated for 10 mins by fluorescence based analysis relative to control.
Chain of Protein arginine N-methyltransferase 3 (O60678 2-531 limits assumed): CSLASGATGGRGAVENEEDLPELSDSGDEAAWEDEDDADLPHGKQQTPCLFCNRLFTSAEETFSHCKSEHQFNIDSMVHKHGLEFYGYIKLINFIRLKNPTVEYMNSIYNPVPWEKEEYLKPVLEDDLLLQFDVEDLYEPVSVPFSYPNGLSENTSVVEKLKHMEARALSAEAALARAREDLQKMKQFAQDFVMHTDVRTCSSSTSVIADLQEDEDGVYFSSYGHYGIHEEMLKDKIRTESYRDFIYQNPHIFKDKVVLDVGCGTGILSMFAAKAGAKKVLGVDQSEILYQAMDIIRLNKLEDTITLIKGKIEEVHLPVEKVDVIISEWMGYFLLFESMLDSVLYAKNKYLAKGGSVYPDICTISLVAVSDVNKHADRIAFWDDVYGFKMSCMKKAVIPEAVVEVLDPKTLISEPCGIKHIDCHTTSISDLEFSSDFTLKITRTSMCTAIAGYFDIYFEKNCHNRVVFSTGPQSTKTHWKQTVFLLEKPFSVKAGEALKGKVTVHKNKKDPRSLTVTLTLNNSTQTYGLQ
The target in assay [2] is T1, Histone-arginine methyltransferase CARM1 (Homo sapiens) (UniProt Q86X55).
T1 sequence (whole entry): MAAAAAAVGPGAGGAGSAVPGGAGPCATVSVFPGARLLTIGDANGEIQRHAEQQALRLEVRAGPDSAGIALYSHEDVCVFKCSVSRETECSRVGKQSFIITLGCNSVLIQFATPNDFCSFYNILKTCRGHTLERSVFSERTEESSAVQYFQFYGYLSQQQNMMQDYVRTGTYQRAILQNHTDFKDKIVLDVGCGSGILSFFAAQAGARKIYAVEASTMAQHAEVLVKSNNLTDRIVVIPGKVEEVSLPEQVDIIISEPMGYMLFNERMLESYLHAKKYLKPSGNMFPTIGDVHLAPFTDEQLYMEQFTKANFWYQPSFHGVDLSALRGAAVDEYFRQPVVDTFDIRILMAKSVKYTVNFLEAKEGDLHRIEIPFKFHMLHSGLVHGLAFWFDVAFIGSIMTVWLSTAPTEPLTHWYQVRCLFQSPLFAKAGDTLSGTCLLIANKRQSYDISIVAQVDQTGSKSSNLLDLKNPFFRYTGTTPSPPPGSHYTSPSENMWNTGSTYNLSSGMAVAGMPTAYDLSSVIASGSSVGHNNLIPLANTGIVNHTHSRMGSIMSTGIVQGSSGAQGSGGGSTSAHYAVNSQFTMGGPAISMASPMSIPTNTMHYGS
Kind of assay: Inhibition of human PRMT4 using histone H3 as substrate and SAM as cofactor at 10 uM by radiometric HotSpot assay relative to control.

The target in assay [3] is Protein arginine N-methyltransferase 6 (Homo sapiens, UniProt Q96LA8). Description: Inhibition of human PRMT6 using GST-GAR as substrate and SAM as cofactor at 10 uM by radiometric HotSpot assay relative to control.
Chain of Protein arginine N-methyltransferase 6 (Q96LA8 whole entry, looked up): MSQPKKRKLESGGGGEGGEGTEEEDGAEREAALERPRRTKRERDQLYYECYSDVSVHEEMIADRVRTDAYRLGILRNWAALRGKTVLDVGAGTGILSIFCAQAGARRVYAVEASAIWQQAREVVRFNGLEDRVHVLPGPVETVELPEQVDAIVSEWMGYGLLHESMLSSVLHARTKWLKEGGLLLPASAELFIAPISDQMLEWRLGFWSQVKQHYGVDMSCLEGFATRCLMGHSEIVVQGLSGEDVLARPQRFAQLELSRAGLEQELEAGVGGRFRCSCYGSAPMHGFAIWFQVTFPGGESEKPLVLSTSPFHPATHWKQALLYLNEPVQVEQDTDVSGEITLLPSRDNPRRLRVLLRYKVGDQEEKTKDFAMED
The target of assay [4] is Protein arginine N-methyltransferase 8 (Homo sapiens, UniProt Q9NR22). Description: Inhibition of human PRMT8 using Histone H4 as substrate and SAM as cofactor at 10 uM by radiometric HotSpot assay relative to control.
Chain of Protein arginine N-methyltransferase 8 (Q9NR22 2-394 limits assumed): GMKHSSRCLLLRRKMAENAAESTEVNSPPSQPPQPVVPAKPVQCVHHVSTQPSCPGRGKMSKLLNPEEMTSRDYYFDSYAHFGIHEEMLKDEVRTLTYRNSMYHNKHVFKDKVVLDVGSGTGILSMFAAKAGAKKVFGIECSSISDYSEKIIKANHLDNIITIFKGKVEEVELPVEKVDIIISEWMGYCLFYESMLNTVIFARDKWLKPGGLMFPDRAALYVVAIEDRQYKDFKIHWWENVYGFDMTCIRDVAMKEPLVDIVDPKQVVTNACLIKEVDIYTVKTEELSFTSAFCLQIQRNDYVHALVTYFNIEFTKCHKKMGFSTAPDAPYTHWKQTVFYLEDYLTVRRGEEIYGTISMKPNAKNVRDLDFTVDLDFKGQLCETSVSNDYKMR
Assay [5] has as its target T2, Histone-arginine methyltransferase CARM1 (Homo sapiens, UniProt Q86X55).
T2 sequence (Q86X55 whole entry): T1 sequence (whole entry)
Kind of assay: Inhibition of human PRMT4 using histone H3 as substrate and SAM as cofactor by radiometric HotSpot assay.

Assay [6] has as its target Protein arginine N-methyltransferase 1 (Homo sapiens, UniProt Q99873). Kind of assay: Inhibition of human PRMT1 using H4-21peptide as substrate at 10 uM incubated for 10 mins by fluorescence based analysis relative to control.

Chain of Protein arginine N-methyltransferase 1 (Q99873 whole entry, looked up): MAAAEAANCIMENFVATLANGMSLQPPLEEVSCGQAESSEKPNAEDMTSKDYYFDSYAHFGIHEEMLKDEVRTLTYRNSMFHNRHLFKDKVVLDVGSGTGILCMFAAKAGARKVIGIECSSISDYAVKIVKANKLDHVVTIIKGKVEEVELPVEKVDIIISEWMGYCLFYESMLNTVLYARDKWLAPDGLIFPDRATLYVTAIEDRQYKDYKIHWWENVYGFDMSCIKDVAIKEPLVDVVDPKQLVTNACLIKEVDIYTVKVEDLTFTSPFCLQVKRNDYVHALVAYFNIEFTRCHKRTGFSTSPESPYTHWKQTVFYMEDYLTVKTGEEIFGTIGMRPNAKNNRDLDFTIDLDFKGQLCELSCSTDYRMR

With `CNC[C@@H](O)COc1ccc(Cl)c(-c2nc(-c3c(C)noc3C)c(C)c(N3CC4(CCN(C(=O)OC)CC4)C3)n2)c1`, in the assay on MDA-MB-231, at 10 µM the inhibition was 30%.
`Nc1ncnc2c1ncn2[C@@H]1O[C@H](CSCCCNCc2cccc(-c3cncnc3)c2)[C@@H](O)[C@H]1O`: the inhibition (in general, the drop in the measured response relative to a control, in per cent) in assay [1] was less than 30%; in assay [2], more than 90%; in assay [3] it was 50%; in assay [4] it was more than 50%. Besides, half-maximal inhibition in assay [5] (IC50) was put at 49 nM.
`Nc1ncnc2c1ncn2[C@@H]1O[C@H](CSCCNCc2cccc(-c3ccoc3)c2)[C@@H](O)[C@H]1O`: the inhibition in assay [1] was less than 30%; in assay [2] it was more than 90%; in assay [3] it was 50%; in assay [4], more than 50%. For the same compound, in assay [5], the IC50 (as a rule, the midpoint of a concentration-inhibition curve) amounted to 1.2 nM.
The like results for `Nc1ncnc2c1ncn2[C@@H]1O[C@H](CSCCNCc2cccc(-c3cncnc3)c2)[C@@H](O)[C@H]1O` were, in that order, less than 30%, more than 90%, 50%, more than 50% and 9.3 nM.
In turn, `CNCCN1CCC(c2cc(CN(C)C(=O)c3cccc(Oc4ccccc4)c3)ccn2)CC1` gave an inhibition at 10 µM with MDA-MB-231 of 30%.
In the case of `N=C(NCCCSC[C@H]1O[C@@H](n2cnc3c(NCCCc4ccccc4)ncnc32)[C@H](O)[C@@H]1O)Nc1ccccc1`, the inhibition in assay [1] was less than 30%; in assay [4], 70%. Moreover, the inhibition result in assay [2], in assay [3] and in assay [6] was “Active” each time.
Regarding `Nc1ncnc2c1ncn2[C@@H]1O[C@H](CSCCNC(=O)NCc2ccccc2)[C@@H](O)[C@H]1O`, the inhibition was more than 50% in assay [1]; more than 90% in assay [2]; 70% in assay [3]; less than 50% in assay [6]; less than 30% in assay [4].
The like results for `Nc1ccc(-c2ccc(CNC(=O)NCCSC[C@H]3O[C@@H](n4cnc5c(N)ncnc54)[C@H](O)[C@@H]3O)cc2)cc1` were, in that order, 3%, 27%, 70%, less than 50% and less than 30%.
The like results for `N=C(NCCCSC[C@H]1O[C@@H](n2cnc3c(NCCCc4ccccc4)ncnc32)[C@H](O)[C@@H]1O)NCc1ccccc1` were, in that order, less than 30%, “Active”, “Active”, “Active” and 70%.
The like results for `N=C(NCCCO)NCCCSC[C@H]1O[C@@H](n2cnc3c(NCCCc4ccccc4)ncnc32)[C@H](O)[C@@H]1O` were, in that order, less than 30%, “Active”, “Active”, “Active” and 70%.
On to `N=C(NCCCSC[C@H]1O[C@@H](n2cnc3c(NCCCc4ccccc4)ncnc32)[C@H](O)[C@@H]1O)NCCc1ccccc1`, for which the inhibition in assay [1] was less than 30%; in assay [4], 70%. The inhibition entry in assay [2], in assay [3] and in assay [6] was “Active” throughout.
As for `Nc1ncnc2c1ncn2[C@@H]1O[C@H](CSCCCNC(=O)NCc2ccc3c(c2)OCO3)[C@@H](O)[C@H]1O`, the inhibition in assay [1] is 3%; in assay [2], 27%; in assay [3], 70%; in assay [6] it was less than 50%; in assay [4], less than 30%.
